Earlier results on two compounds are cited in US20040087563A1, “Hormone replacement therapy with cardiovascular protection using antialdosteronic progestins” (priority 2002, published 2004).

Each structure is given as a SMILES string.

The conditions of data set [1]: patients with severe heart failure already receiving ACE inhibitor therapy.
Data set [2] relates to renin-angiotensin-aldosterone system. To be noted: healthy female volunteers.
For data set [3], the target named is T1, mineralocorticoid receptor (Homo sapiens, UniProt P08235).
T1 sequence (P08235 1-984): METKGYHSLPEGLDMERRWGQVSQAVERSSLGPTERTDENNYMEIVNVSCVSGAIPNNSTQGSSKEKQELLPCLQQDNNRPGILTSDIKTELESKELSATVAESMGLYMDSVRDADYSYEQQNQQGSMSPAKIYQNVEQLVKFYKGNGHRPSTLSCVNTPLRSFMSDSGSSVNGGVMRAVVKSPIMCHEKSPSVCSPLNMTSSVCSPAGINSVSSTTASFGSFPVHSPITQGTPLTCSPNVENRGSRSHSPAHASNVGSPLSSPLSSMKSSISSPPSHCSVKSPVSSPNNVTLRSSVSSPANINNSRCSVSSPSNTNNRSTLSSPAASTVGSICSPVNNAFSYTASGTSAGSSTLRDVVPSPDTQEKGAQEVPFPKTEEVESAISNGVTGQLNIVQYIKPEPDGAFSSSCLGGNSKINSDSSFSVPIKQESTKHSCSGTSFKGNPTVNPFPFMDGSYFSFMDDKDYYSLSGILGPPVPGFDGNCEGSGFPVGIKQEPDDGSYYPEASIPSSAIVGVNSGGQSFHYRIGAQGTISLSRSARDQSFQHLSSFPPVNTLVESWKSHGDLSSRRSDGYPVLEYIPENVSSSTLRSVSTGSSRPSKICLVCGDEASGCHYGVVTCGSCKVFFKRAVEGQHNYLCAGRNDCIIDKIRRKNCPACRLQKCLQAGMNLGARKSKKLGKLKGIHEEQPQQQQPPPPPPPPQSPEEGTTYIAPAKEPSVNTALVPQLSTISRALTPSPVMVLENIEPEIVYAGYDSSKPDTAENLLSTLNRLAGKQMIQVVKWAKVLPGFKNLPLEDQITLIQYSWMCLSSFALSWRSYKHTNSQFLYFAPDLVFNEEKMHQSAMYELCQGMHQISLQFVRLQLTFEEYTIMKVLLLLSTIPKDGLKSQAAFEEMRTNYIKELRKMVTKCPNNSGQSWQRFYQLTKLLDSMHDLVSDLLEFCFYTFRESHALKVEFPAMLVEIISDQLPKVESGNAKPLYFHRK
To be noted: compared with spironolactone.

In the case of `CC(=O)S[C@@H]1CC2=CC(=O)CC[C@]2(C)[C@H]2CC[C@@]3(C)[C@@H](CC[C@@]34CCC(=O)O4)[C@H]12` [Spironolactone, 17-hydroxy-7-alpha-mercapto-3-oxo-17-alpha-pregn-4-ene-21-carboxylic acid gamma-lactone acetate], the morbidity and mortality result in data set [1] is “decrease the morbidity and mortality”.
Consider `C[C@]12CCC(=O)C=C1[C@@H]1C[C@@H]1[C@H]1[C@@H]3[C@@H]4C[C@@H]4[C@@]4(CCC(=O)O4)[C@@]3(C)CC[C@@H]12` [Drospirenone, 6β,7β;15β;16β-dimethylene-3-oxo-17α-preg-4-ene-21, 17-carbolactone], for which, in data set [2], the plasma aldosterone levels result is recorded as “increased”. Moreover, in data set [3], the “potency relative to spironolactone (antimineralocorticoid activity)” value is “about 8 times”.
